Test system: hypertensive subjects
Test: Seated automated office blood pressure (AOBP) in randomized, placebo-controlled, dose-ranging study
Type: in vivo, human
Description: A randomized, double-blinded, placebo-controlled, dose-ranging, multicenter study was conducted to evaluate the effect of orally administered Compound A HBr on blood pressure for the treatment of hypertension in male and female subjects ≥18 years of age.
The study consists of two parts. For enrollment into Part 1 of the study, a subject's value of plasma renin activity (PRA) must be ≤1 ng/mL/h based on morning measurement. If the value of PRA >1 ng/mL/h based on morning measurement, then subjects may be eligible to enter Part 2 of the study.
For Part 1, 163 enrolled subjects ≥18 years of age were randomized into 6 equal treatment groups (1:1:1:1:1:1) to 12.5 mg BID, 25 mg BID, 12.5 mg QD, 50 mg QD, 100 mg QD, or placebo. After a review of interim clinical data, the 2 lowest dose levels (12.5 mg QD and 12.5 mg BID) were stopped for future randomization due to a lack of consistent meaningful reduction of blood pressure, but the patients randomized to that point remained in the study through completion. Thus, after the review of interim clinical data, subjects were randomized into 4 equal treatment groups (1:1:1:1) to 25 mg BID, 50 mg QD, 100 mg QD, or placebo.
For Part 2, 36 enrolled subjects ≥18 years of age were randomized (5:1) to either 100 mg QD Compound A HBr or placebo such that the Compound A HBr treatment group consisted of approximately 30 subjects and the placebo treatment group will consist of approximately 6 subjects.
Subjects orally administered the assigned study drug (Compound A HBr or placebo) according to the assigned dosing regimen for 8 weeks beginning on Study Day 1. All subjects in Part 1 (regardless of dosing group) received BID dosing to preserve the integrity of the blind; active drug is administered as the morning dose for all QD dose groups. Subjects returned to the research facility or were seen by the clinical investigator or approved home health care professional at the end of Study Weeks 1, 2, 3, 4, 5, 6, 7, and 8 (±2 days) for protocol-defined efficacy and safety assessments and procedures, assessment of adverse events (AEs), and confirmation of compliance with study drug usage. Subjects also completed a telephone visit and blood pressure (BP) check at home approximately 3 days post last dose of study drug. Subjects attended up to 14 full clinic visits, including a pre-Screening visit, a Screening/start of Placebo Run-in visit, a second visit during Placebo Run-in, a clinic visit to initiate the ABPM procedure, a Randomization visit, 8 weekly visits during double-blind treatment, and an end-of-study visit scheduled 4 weeks after the last study treatment for final efficacy and safety assessments.
An automated oscillometric sphygmomanometer device was used to measure the subjects' systolic and diastolic blood pressure in office after approximately 5 minutes of rest in the seated position.
The primary endpoint is the change in office-measured (mean of last 2 of 5 unattended measurements using an automated oscillometric sphygmomanometer device after approximately 5 minutes of rest in the seated position) systolic blood pressure (SBP) from baseline to the end of Study Week 8.
Secondary endpoints of this study were: • (a) Change in 24-hour ambulatory blood pressure monitoring (ABPM) parameters (systolic and diastolic) from baseline to the end of Study Week 7. • (b) Change in office-measured SBP from baseline to the end of Study Weeks 1, 2, 3, 4, 5, 6, and 7. • (c) Change in office-measured diastolic blood pressure (DBP) from baseline to the end of Study Weeks 1, 2, 3, 4, 5, 6, 7, and 8. • (d) Proportion of subjects who achieve office-measured BP of ≤130/80 mm Hg by the end of Study Week 8.

[1] = Part 2, 100 mg QD, Thiazide Diuretic Use at Baseline Yes
[2] = Part 2, 100 mg QD, subgroup ACEi/ARBs No (n 1)
[3] = Part 2, 100 mg QD, subgroup ACEi/ARBs Yes
[4] = Part 2, 100 mg QD, subgroup AHTs 2
[5] = Part 2, 100 mg QD, subgroup AHTs ≥3
[6] = Part 2, 100 mg QD, subgroup Age 65-79 yr
[7] = Part 2, 100 mg QD, subgroup Age <65 yr
[8] = Part 2, 100 mg QD, subgroup Age ≥80 yr (n 1)
[9] = Part 2, 100 mg QD, subgroup BMI 25-30 kg/m^2
[10] = Part 2, 100 mg QD, subgroup BMI <25 kg/m^2
[11] = Part 2, 100 mg QD, subgroup BMI >30 kg/m^2
[12] = Part 2, 100 mg QD, subgroup PRA 1-5 ng/mL/hr
[13] = Part 2, 100 mg QD, subgroup PRA >5 ng/mL/hr
[14] = Part 2, 100 mg QD, subgroup Race Black or AA
[15] = Part 2, 100 mg QD, subgroup Race Other
[16] = Part 2, 100 mg QD, subgroup Seated SBP Tertile High
[17] = Part 2, 100 mg QD, subgroup Seated SBP Tertile Low
[18] = Part 2, 100 mg QD, subgroup Seated SBP Tertile Middle
[19] = Part 2, 100 mg QD, subgroup Sex Female
[20] = Part 2, 100 mg QD, subgroup Sex Male
[21] = pooled 50 mg QD, 100 mg QD, 12.5 mg BID and 25 mg BID cohorts (N=103)
[22] = pooled 50 mg QD, 100 mg QD, 12.5 mg BID, 25 mg BID cohorts, week 8

## CC(=O)N[C@H]1CC[C@H](NC(=O)CN2CCN(c3nncc(-c4ccc(C)cc4)n3)CC2)CC1 [Compound A HBr]
[1]
  Mean Automated Office-Measured Systolic Blood Pressure at Wk 8: 131.72 mmHg
  Mean Change from Baseline at Week 8 in Automated Office-Measured Systolic Blood Pressure: −10.50 mmHg
[2]
  Automated Office-Measured Diastolic Blood Pressure, Wk 8, mean: 87.00 mmHg
  Change from Baseline at Week 8 in Automated Office-Measured Diastolic Blood Pressure, mean: 0.00 mmHg
[3]
  Automated Office-Measured Diastolic Blood Pressure, Wk 8, mean: 71.66 mmHg
  Change from Baseline at Week 8 in Automated Office-Measured Diastolic Blood Pressure, mean: −5.88 mmHg
[4]
  Automated Office-Measured Diastolic Blood Pressure, Wk 8, mean: 71.58 mmHg
  Change from Baseline at Week 8 in Automated Office-Measured Diastolic Blood Pressure, mean: −6.21 mmHg
[5]
  Automated Office-Measured Diastolic Blood Pressure, Wk 8, mean: 73.18 mmHg
  Change from Baseline at Week 8 in Automated Office-Measured Diastolic Blood Pressure, mean: −4.77 mmHg
[6]
  Automated Office-Measured Diastolic Blood Pressure, Wk 8, mean: 72.38 mmHg
  Change from Baseline at Week 8 in Automated Office-Measured Diastolic Blood Pressure, mean: −3.83 mmHg
[7]
  Automated Office-Measured Diastolic Blood Pressure, Wk 8, mean: 72.50 mmHg
  Change from Baseline at Week 8 in Automated Office-Measured Diastolic Blood Pressure, mean: −10.38 mmHg
[8]
  Automated Office-Measured Diastolic Blood Pressure, Wk 8, mean: 65.00 mmHg
  Change from Baseline at Week 8 in Automated Office-Measured Diastolic Blood Pressure, mean: −7.00 mmHg
[9]
  Automated Office-Measured Diastolic Blood Pressure, Wk 8, mean: 70.40 mmHg
  Change from Baseline at Week 8 in Automated Office-Measured Diastolic Blood Pressure, mean: −6.10 mmHg
[10]
  Automated Office-Measured Diastolic Blood Pressure, Wk 8, mean: 77.00 mmHg
  Change from Baseline at Week 8 in Automated Office-Measured Diastolic Blood Pressure, mean: −1.25 mmHg
[11]
  Automated Office-Measured Diastolic Blood Pressure, Wk 8, mean: 73.46 mmHg
  Change from Baseline at Week 8 in Automated Office-Measured Diastolic Blood Pressure, mean: −5.88 mmHg
[12]
  Automated Office-Measured Diastolic Blood Pressure, Wk 8, mean: 71.93 mmHg
  Change from Baseline at Week 8 in Automated Office-Measured Diastolic Blood Pressure, mean: −2.14 mmHg
[13]
  Automated Office-Measured Diastolic Blood Pressure, Wk 8, mean: 71.29 mmHg
  Change from Baseline at Week 8 in Automated Office-Measured Diastolic Blood Pressure, mean: −11.79 mmHg
[14]
  Automated Office-Measured Diastolic Blood Pressure, Wk 8, mean: 72.00 mmHg
  Change from Baseline at Week 8 in Automated Office-Measured Diastolic Blood Pressure, mean: −4.67 mmHg
[15]
  Automated Office-Measured Diastolic Blood Pressure, Wk 8, mean: 72.21 mmHg
  Change from Baseline at Week 8 in Automated Office-Measured Diastolic Blood Pressure, mean: −5.94 mmHg
[16]
  Automated Office-Measured Diastolic Blood Pressure, Wk 8, mean: 72.09 mmHg
  Change from Baseline at Week 8 in Automated Office-Measured Diastolic Blood Pressure, mean: −4.14 mmHg
[17]
  Automated Office-Measured Diastolic Blood Pressure, Wk 8, mean: 72.33 mmHg
  Change from Baseline at Week 8 in Automated Office-Measured Diastolic Blood Pressure, mean: −6.78 mmHg
[18]
  Automated Office-Measured Diastolic Blood Pressure, Wk 8, mean: 72.10 mmHg
  Change from Baseline at Week 8 in Automated Office-Measured Diastolic Blood Pressure, mean: −6.40 mmHg
[19]
  Automated Office-Measured Diastolic Blood Pressure, Wk 8, mean: 70.75 mmHg
  Change from Baseline at Week 8 in Automated Office-Measured Diastolic Blood Pressure, mean: −6.28 mmHg
[20]
  Automated Office-Measured Diastolic Blood Pressure, Wk 8, mean: 75.00 mmHg
  Change from Baseline at Week 8 in Automated Office-Measured Diastolic Blood Pressure, mean: −4.50 mmHg
Across dosing cohorts
  Blood pressure reduction by background thiazide diuretic: particularly effective at reducing the blood pressure of individuals who were receiving a thiazide diuretic
  Blood pressure reduction by body mass index (BMI): particularly effective at reducing the blood pressure of individuals with a body mass index (BMI) of greater than 30
[21]
  Subjects with change in BPsys >−15 mmHg: 41%
  Subjects with change in BPsys >−25 mmHg: 25%
[22]
  Subjects achieving >−23 mmHg fall in systolic blood pressure: 25%
  Subjects achieving ≥15 mmHg fall in systolic blood pressure: 41%
